Assay results reported in PubChem BioAssay (NCI).
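The compound was tested at five concentrations on cells cultured in 96-well plates, with a 48-hour exposure period. TGI marks complete inhibition of growth.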

Key:
Assay in all cases: NCI-60 cell line screen, 48 h
786-0 renal = tested on: 786-0 renal
A498 renal = tested on: A498 renal
A549 NSCLC = tested on: A549 NSCLC
ACHN renal = tested on: ACHN renal
BT-549 breast = tested on: BT-549 breast
CAKI-1 renal = tested on: CAKI-1 renal
CCRF-CEM leukemia = tested on: CCRF-CEM leukemia
COLO 205 colon = tested on: COLO 205 colon
DU-145 prostate = tested on: DU-145 prostate
EKVX NSCLC = tested on: EKVX NSCLC
HCC-2998 colon = tested on: HCC-2998 colon
HCT-116 colon = tested on: HCT-116 colon
HCT-15 colon = tested on: HCT-15 colon
HL-60(TB) leukemia = tested on: HL-60(TB) leukemia
HOP-92 NSCLC = tested on: HOP-92 NSCLC
HS 578T breast = tested on: HS 578T breast
IGROV1 ovarian = tested on: IGROV1 ovarian
K-562 leukemia = tested on: K-562 leukemia
KM12 colon = tested on: KM12 colon
LOX IMVI melanoma = tested on: LOX IMVI melanoma
M14 melanoma = tested on: M14 melanoma
MALME-3M melanoma = tested on: MALME-3M melanoma
MCF7 breast = tested on: MCF7 breast
MDA-MB-231 breast = tested on: MDA-MB-231 breast
MDA-MB-435 = tested on: MDA-MB-435
MDA-N = tested on: MDA-N
MOLT-4 leukemia = tested on: MOLT-4 leukemia
NCI-H226 lung = tested on: NCI-H226 lung
NCI-H460 lung = tested on: NCI-H460 lung
NCI-H522 lung = tested on: NCI-H522 lung
NCI/ADR-RES ovarian = tested on: NCI/ADR-RES ovarian
OVCAR-3 ovarian = tested on: OVCAR-3 ovarian
OVCAR-4 ovarian = tested on: OVCAR-4 ovarian
OVCAR-5 ovarian = tested on: OVCAR-5 ovarian
OVCAR-8 ovarian = tested on: OVCAR-8 ovarian
PC-3 prostate = tested on: PC-3 prostate
RPMI-8226 leukemia = tested on: RPMI-8226 leukemia
RXF 393 renal = tested on: RXF 393 renal
SF-268 CNS = tested on: SF-268 CNS
SF-295 CNS = tested on: SF-295 CNS
SF-539 CNS = tested on: SF-539 CNS
SK-MEL-2 melanoma = tested on: SK-MEL-2 melanoma
SK-MEL-28 melanoma = tested on: SK-MEL-28 melanoma
SK-MEL-5 melanoma = tested on: SK-MEL-5 melanoma
SN12C renal = tested on: SN12C renal
SNB-19 CNS = tested on: SNB-19 CNS
SNB-75 CNS = tested on: SNB-75 CNS
SR leukemia = tested on: SR leukemia
SW-620 colon = tested on: SW-620 colon
T-47D breast = tested on: T-47D breast
TK-10 renal = tested on: TK-10 renal
U251 CNS = tested on: U251 CNS
UACC-257 melanoma = tested on: UACC-257 melanoma
UACC-62 melanoma = tested on: UACC-62 melanoma
UO-31 renal = tested on: UO-31 renal
DLD-1 colon = tested on: DLD-1 colon
DMS 114 small cell lung = tested on: DMS 114 small cell lung
DMS 273 small cell lung = tested on: DMS 273 small cell lung
HOP-18 NSCLC = tested on: HOP-18 NSCLC
HOP-62 NSCLC = tested on: HOP-62 NSCLC
HT29 colon = tested on: HT29 colon
KM20L2 colon = tested on: KM20L2 colon
LXFL 529 NSCLC = tested on: LXFL 529 NSCLC
M19-MEL melanoma = tested on: M19-MEL melanoma
NCI-H23 lung = tested on: NCI-H23 lung
SK-OV-3 ovarian = tested on: SK-OV-3 ovarian
SNB-78 CNS = tested on: SNB-78 CNS
XF 498 CNS = tested on: XF 498 CNS

N#Cc1c(N)c2c(c(-c3ccccc3)c1-c1ccccc1)C(=O)N(O)C2=O
TGI (786-0 renal): > 100 µM
TGI (A498 renal): > 100 µM
TGI (A549 NSCLC): > 100 µM
TGI (ACHN renal): > 100 µM
TGI (BT-549 breast): > 100 µM
TGI (CAKI-1 renal): > 100 µM
TGI (CCRF-CEM leukemia): > 100 µM
TGI (COLO 205 colon): 52.2 µM
TGI (DU-145 prostate): > 100 µM
TGI (EKVX NSCLC): > 100 µM
TGI (HCC-2998 colon): > 100 µM
TGI (HCT-116 colon): 82.4 µM
TGI (HCT-15 colon): > 100 µM
TGI (HL-60(TB) leukemia): > 100 µM
TGI (HOP-92 NSCLC): > 100 µM
TGI (HS 578T breast): 99.6 µM
TGI (IGROV1 ovarian): 75.2 µM
TGI (K-562 leukemia): > 100 µM
TGI (KM12 colon): 83.5 µM
TGI (LOX IMVI melanoma): > 100 µM
TGI (M14 melanoma): > 100 µM
TGI (MALME-3M melanoma): > 100 µM
TGI (MCF7 breast): > 100 µM
TGI (MDA-MB-231 breast): > 100 µM
TGI (MDA-MB-435): > 100 µM
TGI (MDA-N): > 100 µM
TGI (MOLT-4 leukemia): > 100 µM
TGI (NCI-H226 lung): 62.8 µM
TGI (NCI-H460 lung): > 100 µM
TGI (NCI-H522 lung): > 100 µM
TGI (NCI/ADR-RES ovarian): > 100 µM
TGI (OVCAR-3 ovarian): > 100 µM
TGI (OVCAR-4 ovarian): > 100 µM
TGI (OVCAR-5 ovarian): > 100 µM
TGI (OVCAR-8 ovarian): > 100 µM
TGI (PC-3 prostate): 48.1 µM
TGI (RPMI-8226 leukemia): > 100 µM
TGI (RXF 393 renal): 44.3 µM
TGI (SF-268 CNS): > 100 µM
TGI (SF-295 CNS): > 100 µM
TGI (SF-539 CNS): > 100 µM
TGI (SK-MEL-2 melanoma): > 100 µM
TGI (SK-MEL-28 melanoma): > 100 µM
TGI (SK-MEL-5 melanoma): > 100 µM
TGI (SN12C renal): > 100 µM
TGI (SNB-19 CNS): > 100 µM
TGI (SNB-75 CNS): > 100 µM
TGI (SR leukemia): > 100 µM
TGI (SW-620 colon): > 100 µM
TGI (T-47D breast): 73.9 µM
TGI (TK-10 renal): > 100 µM
TGI (U251 CNS): > 100 µM
TGI (UACC-257 melanoma): > 100 µM
TGI (UACC-62 melanoma): > 100 µM
TGI (UO-31 renal): > 100 µM

CSc1cc(C(C)(C)C)ccc1C(O)c1ccc(C(C)(C)C)cc1SC
TGI (786-0 renal): 22.7 µM
TGI (A498 renal): 26.7 µM
TGI (A549 NSCLC): 24.4 µM
TGI (ACHN renal): 23.6 µM
TGI (CAKI-1 renal): 24.9 µM
TGI (CCRF-CEM leukemia): 35.8 µM
TGI (COLO 205 colon): 23 µM
TGI (DLD-1 colon): 21.7 µM
TGI (DMS 114 small cell lung): 22.5 µM
TGI (DMS 273 small cell lung): 26.9 µM
TGI (EKVX NSCLC): 21.2 µM
TGI (HCC-2998 colon): 32.1 µM
TGI (HCT-116 colon): 17.8 µM
TGI (HCT-15 colon): 29.9 µM
TGI (HL-60(TB) leukemia): 21.2 µM
TGI (HOP-18 NSCLC): 34 µM
TGI (HOP-62 NSCLC): 27.3 µM
TGI (HOP-92 NSCLC): 28.9 µM
TGI (HT29 colon): 19.6 µM
TGI (IGROV1 ovarian): 26.2 µM
TGI (K-562 leukemia): 30.5 µM
TGI (KM12 colon): 25.8 µM
TGI (KM20L2 colon): 23.8 µM
TGI (LOX IMVI melanoma): 24.3 µM
TGI (LXFL 529 NSCLC): 32.5 µM
TGI (M14 melanoma): 26.9 µM
TGI (M19-MEL melanoma): 23.5 µM
TGI (MALME-3M melanoma): 29.9 µM
TGI (MOLT-4 leukemia): 21.6 µM
TGI (NCI-H226 lung): 27 µM
TGI (NCI-H23 lung): 29.8 µM
TGI (NCI-H460 lung): 31.4 µM
TGI (NCI-H522 lung): 21.9 µM
TGI (OVCAR-3 ovarian): 24.9 µM
TGI (OVCAR-4 ovarian): 22.9 µM
TGI (OVCAR-5 ovarian): 27 µM
TGI (OVCAR-8 ovarian): 28.8 µM
TGI (RXF 393 renal): 24.9 µM
TGI (SF-268 CNS): 27.1 µM
TGI (SF-295 CNS): 22.6 µM
TGI (SF-539 CNS): 32.3 µM
TGI (SK-MEL-2 melanoma): 34.1 µM
TGI (SK-MEL-28 melanoma): 39.3 µM
TGI (SK-MEL-5 melanoma): 27.5 µM
TGI (SK-OV-3 ovarian): 32.2 µM
TGI (SN12C renal): 25.8 µM
TGI (SNB-19 CNS): 34.3 µM
TGI (SNB-75 CNS): 32.3 µM
TGI (SNB-78 CNS): 40.3 µM
TGI (SR leukemia): 32.2 µM
TGI (SW-620 colon): 23.9 µM
TGI (TK-10 renal): 30.6 µM
TGI (U251 CNS): 27.1 µM
TGI (UACC-257 melanoma): 25.5 µM
TGI (UACC-62 melanoma): 33.9 µM
TGI (UO-31 renal): 18.6 µM
TGI (XF 498 CNS): 23.6 µM
